According to patent US9249129B2, “Morpholino substituted urea derivatives as mTOR inhibitors” (CELLZOME LIMITED, priority 2010, dated 2016):

Legend:
Assay in all cases: kinobeads assay with mass spectrometry detection of kinases (kinase selectivity profile)
Type in all cases: binding
kinases (kinome) [1] = molecular target: T1, kinases (kinome) (Homo sapiens, UniProt O00444); conditions: PLK4 (Other), IPI00410344
T1 construct: determined in kinobeads assays with mass spectrometry detection of kinases as described previously; endogenous in cells; host or cells: cell lysate
T1 sequence (O00444 1-970): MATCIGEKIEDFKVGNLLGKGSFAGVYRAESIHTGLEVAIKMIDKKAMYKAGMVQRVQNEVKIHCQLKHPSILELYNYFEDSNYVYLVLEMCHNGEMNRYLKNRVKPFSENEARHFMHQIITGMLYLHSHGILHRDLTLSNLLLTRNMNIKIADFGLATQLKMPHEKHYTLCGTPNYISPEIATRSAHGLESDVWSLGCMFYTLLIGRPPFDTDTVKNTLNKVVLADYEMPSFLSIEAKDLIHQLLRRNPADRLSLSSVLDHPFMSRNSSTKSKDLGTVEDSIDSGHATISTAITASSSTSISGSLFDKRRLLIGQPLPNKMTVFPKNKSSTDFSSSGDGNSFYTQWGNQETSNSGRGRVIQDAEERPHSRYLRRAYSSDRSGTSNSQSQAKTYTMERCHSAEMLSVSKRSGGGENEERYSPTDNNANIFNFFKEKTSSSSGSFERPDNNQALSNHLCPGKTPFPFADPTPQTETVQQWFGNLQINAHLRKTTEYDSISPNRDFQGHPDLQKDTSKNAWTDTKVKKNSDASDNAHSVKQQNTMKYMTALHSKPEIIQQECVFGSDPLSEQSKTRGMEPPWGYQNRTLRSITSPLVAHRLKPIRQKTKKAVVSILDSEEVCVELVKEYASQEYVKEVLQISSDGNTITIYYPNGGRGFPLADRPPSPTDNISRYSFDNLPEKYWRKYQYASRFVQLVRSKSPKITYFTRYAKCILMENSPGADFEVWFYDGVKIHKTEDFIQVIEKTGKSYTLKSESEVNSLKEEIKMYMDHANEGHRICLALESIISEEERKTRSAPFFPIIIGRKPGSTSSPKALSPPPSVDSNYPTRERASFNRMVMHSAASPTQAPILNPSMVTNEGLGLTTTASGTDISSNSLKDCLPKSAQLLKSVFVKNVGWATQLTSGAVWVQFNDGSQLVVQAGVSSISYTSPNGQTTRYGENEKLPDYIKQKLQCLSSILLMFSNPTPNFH
Text: (§1) The protein kinase complement of the human genome (the kinome) was described previously (Manning et al., 2002. Science 298(5600):1912-1934). Sequence accession numbers are defined by the International Protein Index (IPI) (Kersey et al., 2004. Proteomics 4(7):1985-1988).

kinases (kinome) [2] = molecular target: T2, kinases (kinome) (Homo sapiens, UniProt P25440); conditions: BRD2 (Atypical), IPI00440502
T2 construct: determined in kinobeads assays with mass spectrometry detection of kinases as described previously; endogenous in cells; host or cells: cell lysate
T2 sequence (P25440 whole entry): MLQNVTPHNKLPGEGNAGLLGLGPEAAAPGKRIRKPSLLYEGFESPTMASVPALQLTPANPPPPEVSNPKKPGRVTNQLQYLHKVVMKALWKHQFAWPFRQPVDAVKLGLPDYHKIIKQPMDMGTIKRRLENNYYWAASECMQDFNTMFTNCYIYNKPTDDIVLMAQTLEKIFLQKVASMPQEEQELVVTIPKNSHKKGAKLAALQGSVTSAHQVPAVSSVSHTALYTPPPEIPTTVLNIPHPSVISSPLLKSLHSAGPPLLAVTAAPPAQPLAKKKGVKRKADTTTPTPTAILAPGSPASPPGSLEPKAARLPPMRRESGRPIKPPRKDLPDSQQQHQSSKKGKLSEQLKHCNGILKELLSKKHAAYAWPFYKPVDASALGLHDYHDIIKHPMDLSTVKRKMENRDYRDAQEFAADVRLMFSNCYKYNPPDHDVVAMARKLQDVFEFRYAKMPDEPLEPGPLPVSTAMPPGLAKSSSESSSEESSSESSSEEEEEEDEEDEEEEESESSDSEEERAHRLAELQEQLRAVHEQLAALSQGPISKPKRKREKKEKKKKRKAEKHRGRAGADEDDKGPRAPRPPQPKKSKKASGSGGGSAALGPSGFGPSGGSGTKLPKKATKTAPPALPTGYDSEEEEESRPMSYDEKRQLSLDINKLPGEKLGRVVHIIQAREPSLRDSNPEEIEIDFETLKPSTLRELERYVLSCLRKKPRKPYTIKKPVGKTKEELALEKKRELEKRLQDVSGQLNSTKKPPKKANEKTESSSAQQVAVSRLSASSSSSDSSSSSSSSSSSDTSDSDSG
Text: as §1

kinases (kinome) [3] = molecular target: T3, kinases (kinome) (Homo sapiens, UniProt P42338); conditions: PIK3Cb (Lipid Kinase), IPI00031388
T3 construct: determined in kinobeads assays with mass spectrometry detection of kinases as described previously; endogenous in cells; host or cells: cell lysate
T3 sequence (P42338 whole entry): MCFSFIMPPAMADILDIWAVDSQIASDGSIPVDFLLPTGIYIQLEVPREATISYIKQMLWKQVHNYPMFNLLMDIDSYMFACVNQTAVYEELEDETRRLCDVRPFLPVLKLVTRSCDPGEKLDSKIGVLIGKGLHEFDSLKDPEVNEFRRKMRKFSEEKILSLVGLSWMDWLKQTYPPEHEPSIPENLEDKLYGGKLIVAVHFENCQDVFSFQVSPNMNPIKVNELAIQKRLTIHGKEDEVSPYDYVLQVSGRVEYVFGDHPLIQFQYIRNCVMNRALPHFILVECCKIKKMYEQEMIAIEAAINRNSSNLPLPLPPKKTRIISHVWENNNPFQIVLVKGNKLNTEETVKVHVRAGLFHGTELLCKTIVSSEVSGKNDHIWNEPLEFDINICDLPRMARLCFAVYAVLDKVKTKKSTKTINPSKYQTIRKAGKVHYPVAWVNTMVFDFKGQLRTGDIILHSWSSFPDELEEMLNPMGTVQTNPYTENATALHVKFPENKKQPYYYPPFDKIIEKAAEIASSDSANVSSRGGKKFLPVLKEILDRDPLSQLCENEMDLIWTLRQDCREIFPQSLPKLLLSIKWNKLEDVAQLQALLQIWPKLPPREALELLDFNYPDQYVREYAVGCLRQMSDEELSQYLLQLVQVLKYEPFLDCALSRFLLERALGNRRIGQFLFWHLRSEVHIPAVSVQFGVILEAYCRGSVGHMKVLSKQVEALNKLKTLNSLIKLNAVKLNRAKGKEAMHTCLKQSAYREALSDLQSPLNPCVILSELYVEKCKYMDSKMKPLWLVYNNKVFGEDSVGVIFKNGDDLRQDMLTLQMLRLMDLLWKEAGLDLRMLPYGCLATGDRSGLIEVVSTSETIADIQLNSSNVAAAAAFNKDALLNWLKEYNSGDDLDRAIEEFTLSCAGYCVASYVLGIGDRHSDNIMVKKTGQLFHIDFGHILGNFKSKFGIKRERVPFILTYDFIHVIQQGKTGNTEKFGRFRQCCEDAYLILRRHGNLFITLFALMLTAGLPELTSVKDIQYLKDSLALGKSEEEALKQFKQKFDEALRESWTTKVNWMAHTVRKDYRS
Text: as §1

kinases (kinome) [4] = molecular target: T4, kinases (kinome) (Homo sapiens, UniProt P45983); conditions: JNK1 (CMGC), IPI00220306
T4 construct: determined in kinobeads assays with mass spectrometry detection of kinases as described previously; endogenous in cells; host or cells: cell lysate
T4 sequence (P45983 whole entry): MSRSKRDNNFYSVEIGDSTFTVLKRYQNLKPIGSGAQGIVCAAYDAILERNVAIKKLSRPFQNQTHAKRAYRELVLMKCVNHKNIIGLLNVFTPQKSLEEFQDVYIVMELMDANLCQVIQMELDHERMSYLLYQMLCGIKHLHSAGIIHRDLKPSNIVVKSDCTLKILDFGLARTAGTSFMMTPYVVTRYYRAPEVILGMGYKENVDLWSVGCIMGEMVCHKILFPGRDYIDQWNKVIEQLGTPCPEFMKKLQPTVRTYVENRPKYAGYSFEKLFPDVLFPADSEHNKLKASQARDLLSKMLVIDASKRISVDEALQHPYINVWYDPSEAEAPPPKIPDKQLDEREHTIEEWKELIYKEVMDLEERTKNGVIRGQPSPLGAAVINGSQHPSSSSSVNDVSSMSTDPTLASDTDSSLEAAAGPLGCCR
Text: as §1

kinases (kinome) [5] = molecular target: T5, kinases (kinome) (Homo sapiens, UniProt P49840); conditions: GSK3A (CMGC), IPI00292228
T5 construct: determined in kinobeads assays with mass spectrometry detection of kinases as described previously; endogenous in cells; host or cells: cell lysate
T5 sequence (P49840 whole entry): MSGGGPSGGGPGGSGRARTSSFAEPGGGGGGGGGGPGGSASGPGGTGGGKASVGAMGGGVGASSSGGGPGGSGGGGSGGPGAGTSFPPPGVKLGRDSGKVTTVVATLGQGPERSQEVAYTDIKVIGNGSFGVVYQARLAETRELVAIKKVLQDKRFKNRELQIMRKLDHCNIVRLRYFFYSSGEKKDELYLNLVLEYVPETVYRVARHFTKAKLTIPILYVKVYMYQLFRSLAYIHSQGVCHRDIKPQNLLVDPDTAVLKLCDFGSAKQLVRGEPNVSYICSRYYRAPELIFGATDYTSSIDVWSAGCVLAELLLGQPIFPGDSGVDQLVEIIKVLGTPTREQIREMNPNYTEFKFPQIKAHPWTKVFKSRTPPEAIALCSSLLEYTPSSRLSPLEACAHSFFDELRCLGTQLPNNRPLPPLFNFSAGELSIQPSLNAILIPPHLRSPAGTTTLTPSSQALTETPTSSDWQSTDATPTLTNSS
Text: as §1

kinases (kinome) [6] = molecular target: T6, kinases (kinome) (Homo sapiens, UniProt P50750); conditions: CDK9 (CMGC), IPI00552413
T6 construct: determined in kinobeads assays with mass spectrometry detection of kinases as described previously; endogenous in cells; host or cells: cell lysate
T6 sequence (P50750 whole entry): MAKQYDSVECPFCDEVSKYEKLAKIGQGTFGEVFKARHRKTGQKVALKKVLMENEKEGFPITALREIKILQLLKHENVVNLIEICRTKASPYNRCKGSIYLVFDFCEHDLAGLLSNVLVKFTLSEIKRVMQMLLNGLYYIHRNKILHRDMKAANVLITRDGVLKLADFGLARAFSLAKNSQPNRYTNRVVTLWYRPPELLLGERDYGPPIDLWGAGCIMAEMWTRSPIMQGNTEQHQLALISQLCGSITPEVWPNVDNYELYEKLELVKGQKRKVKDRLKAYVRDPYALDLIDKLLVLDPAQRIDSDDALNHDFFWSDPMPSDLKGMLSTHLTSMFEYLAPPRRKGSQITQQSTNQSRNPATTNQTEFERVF
Text: as §1

kinases (kinome) [7] = molecular target: T7, kinases (kinome) (Homo sapiens, UniProt Q04759); conditions: PKCt (AGC), IPI00029196
T7 construct: determined in kinobeads assays with mass spectrometry detection of kinases as described previously; endogenous in cells; host or cells: cell lysate
T7 sequence (Q04759 whole entry): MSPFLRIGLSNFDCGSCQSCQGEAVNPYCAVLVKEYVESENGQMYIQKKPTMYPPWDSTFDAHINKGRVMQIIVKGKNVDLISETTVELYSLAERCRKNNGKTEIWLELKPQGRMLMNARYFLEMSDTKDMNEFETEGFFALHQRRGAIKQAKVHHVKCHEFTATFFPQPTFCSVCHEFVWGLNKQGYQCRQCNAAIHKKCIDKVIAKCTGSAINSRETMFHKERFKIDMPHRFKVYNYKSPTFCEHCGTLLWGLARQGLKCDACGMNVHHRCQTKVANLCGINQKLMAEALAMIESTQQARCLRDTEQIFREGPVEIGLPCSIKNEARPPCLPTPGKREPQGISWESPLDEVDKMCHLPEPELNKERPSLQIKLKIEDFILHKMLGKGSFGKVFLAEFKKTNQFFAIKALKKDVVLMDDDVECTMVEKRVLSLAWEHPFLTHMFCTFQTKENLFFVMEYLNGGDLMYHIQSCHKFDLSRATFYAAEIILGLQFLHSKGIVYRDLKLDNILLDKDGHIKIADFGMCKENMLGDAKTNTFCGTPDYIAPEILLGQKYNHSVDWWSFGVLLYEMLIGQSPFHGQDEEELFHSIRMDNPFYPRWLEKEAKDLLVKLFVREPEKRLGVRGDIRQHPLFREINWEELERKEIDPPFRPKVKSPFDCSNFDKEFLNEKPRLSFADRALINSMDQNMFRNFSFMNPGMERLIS
Text: as §1

kinases (kinome) [8] = molecular target: T8, kinases (kinome) (Homo sapiens, UniProt Q04771); conditions: ALK2 (TKL), IPI00029219
T8 construct: determined in kinobeads assays with mass spectrometry detection of kinases as described previously; endogenous in cells; host or cells: cell lysate
T8 sequence (Q04771 21-509): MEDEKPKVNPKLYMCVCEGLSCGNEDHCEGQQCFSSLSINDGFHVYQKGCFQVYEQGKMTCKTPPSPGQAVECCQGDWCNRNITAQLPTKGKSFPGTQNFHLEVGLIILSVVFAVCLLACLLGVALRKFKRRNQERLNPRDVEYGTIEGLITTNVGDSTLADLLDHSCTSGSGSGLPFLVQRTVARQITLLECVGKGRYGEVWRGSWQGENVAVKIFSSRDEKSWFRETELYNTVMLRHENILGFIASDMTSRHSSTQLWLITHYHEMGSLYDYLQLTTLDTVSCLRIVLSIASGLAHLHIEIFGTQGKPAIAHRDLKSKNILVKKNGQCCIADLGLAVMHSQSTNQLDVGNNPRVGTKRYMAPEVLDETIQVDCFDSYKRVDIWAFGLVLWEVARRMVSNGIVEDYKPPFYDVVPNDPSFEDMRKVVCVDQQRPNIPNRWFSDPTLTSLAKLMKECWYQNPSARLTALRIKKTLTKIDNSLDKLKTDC
Text: as §1

kinases (kinome) [9] = molecular target: T9, kinases (kinome) (Homo sapiens, UniProt Q14164); conditions: IKKe (Other), IPI00029045
T9 construct: determined in kinobeads assays with mass spectrometry detection of kinases as described previously; endogenous in cells; host or cells: cell lysate
T9 sequence (Q14164 1-716): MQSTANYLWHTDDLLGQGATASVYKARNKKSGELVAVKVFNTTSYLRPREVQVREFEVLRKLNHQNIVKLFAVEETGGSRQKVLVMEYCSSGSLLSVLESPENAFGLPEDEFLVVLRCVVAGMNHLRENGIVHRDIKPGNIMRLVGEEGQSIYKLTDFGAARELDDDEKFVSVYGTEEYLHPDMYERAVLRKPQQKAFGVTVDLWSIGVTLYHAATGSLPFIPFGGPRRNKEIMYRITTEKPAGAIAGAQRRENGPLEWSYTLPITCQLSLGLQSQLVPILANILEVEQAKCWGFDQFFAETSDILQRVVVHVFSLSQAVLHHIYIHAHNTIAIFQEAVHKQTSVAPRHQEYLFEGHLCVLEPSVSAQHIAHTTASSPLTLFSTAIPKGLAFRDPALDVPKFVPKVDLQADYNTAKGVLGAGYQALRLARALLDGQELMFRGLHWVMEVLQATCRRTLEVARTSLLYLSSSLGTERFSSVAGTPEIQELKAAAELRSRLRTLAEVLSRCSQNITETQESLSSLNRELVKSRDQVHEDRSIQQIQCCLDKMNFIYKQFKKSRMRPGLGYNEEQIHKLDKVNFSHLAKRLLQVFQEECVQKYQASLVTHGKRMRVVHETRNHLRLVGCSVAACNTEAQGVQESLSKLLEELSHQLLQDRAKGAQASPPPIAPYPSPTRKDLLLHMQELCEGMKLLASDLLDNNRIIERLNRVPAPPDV
Text: as §1

kinases (kinome) [10] = molecular target: T10, kinases (kinome) (Homo sapiens, UniProt Q8TCG2); conditions: PIK4C2B (Lipid Kinase), IPI00291068
T10 construct: determined in kinobeads assays with mass spectrometry detection of kinases as described previously; endogenous in cells; host or cells: cell lysate
T10 sequence (Q8TCG2 whole entry): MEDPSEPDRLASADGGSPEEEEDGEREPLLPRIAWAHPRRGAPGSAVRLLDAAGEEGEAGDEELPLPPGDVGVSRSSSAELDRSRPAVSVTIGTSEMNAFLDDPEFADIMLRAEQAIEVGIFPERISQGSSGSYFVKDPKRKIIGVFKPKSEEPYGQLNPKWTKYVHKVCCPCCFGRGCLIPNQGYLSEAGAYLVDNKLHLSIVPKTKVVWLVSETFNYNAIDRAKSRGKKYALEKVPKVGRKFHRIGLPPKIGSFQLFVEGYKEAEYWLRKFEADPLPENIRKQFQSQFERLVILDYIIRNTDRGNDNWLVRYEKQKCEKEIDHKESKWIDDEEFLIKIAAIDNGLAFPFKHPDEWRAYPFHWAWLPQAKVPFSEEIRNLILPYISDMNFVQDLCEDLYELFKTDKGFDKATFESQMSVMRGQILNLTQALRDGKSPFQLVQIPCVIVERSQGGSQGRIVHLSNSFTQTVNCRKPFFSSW
Text: as §1

Measured: IC50

C[C@H]1COCCN1c1nc(-c2ccc(NC(=O)NC3CC3)cc2)cc(-c2ccccc2S(C)(=O)=O)n1 [Example 4, (S)-1-cyclopropyl-3-(4-(2-(3-methylmorpholino)-6-(2-(methylsulfonyl)phenyl)pyrimidin-4-yl)phenyl)urea]
> 10 µM: all assays above

C[C@H]1COCCN1c1cc(-c2ccccc2S(C)(=O)=O)nc(-c2ccc(NC(=O)NC3CC3)cc2)n1 [Example 6, (S)-1-cyclopropyl-3-(4-(4-(3-methylmorpholino)-6-(2-(methylsulfonyl)phenyl)pyrimidin-2-yl)phenyl)urea]
> 10 µM: all assays above

CCNC(=O)Nc1ccc(-c2cc(-c3ccccc3C#N)nc(N3CCOC[C@@H]3C)n2)cc1 [Example 8, (S)-1-(4-(6-(2-cyanophenyl)-2-(3-methylmorpholino)pyrimidin-4-yl)phenyl)-3-ethylurea]
> 10 µM: all assays above

C[C@H]1COCCN1c1nc(-c2ccc(NC(=O)NC3CC3)cc2)cc(-c2cc(F)ccc2S(C)(=O)=O)n1 [Example 40, (S)-1-cyclopropyl-3-(4-(6-(5-fluoro-2-(methylsulfonyl)phenyl)-2-(3-methylmorpholino)pyrimidin-4-yl)phenyl)urea]
> 10 µM: all assays above

C[C@H]1COCCN1c1cc(-c2ccccn2)nc(-c2ccc(NC(=O)NCCO)cc2)n1 [Example 43, (S)-1-(2-hydroxyethyl)-3-(4-(4-(3-methylmorpholino)-6-(pyridin-2-yl)pyrimidin-2-yl)phenyl)urea]
> 10 µM: all assays above

C[C@H]1COCCN1c1nc(-c2ccc(NC(=O)NC3CC3)cc2)cc(-c2cccnc2S(C)(=O)=O)n1 [Example 46, (S)-1-cyclopropyl-3-(4-(2-(3-methylmorpholino)-6-(2-(methylsulfonyl)pyridin-3-yl)pyrimidin-4-yl)phenyl)urea]
> 10 µM: all assays above

C[C@H]1COCCN1c1nc(-c2ccc(NC(=O)N[C@H]3CCC[C@@H]3O)cc2)cc(-c2cc(F)ccc2S(C)(=O)=O)n1 [Example 76, 1-(4-(6-(5-fluoro-2-(methylsulfonyl)phenyl)-2-((S)-3-methylmorpholino)pyrimidin-4-yl)phenyl)-3-((1S,2S)-2-hydroxycyclopentyl)urea]
> 10 µM: all assays above
